Results as given in patent US11174268B2, “Benzenesulfonamide compouds and their use as therapeutic agents” (Xenon Pharmaceuticals Inc., priority 2016, dated 2021).
Structures can show the parent of a compound that is named as a salt.

Assays:
NaV1.6 [1] = biological target: T1, NaV1.6 (Homo sapiens (Human), UniProt Q9UQD0); assay: Sodium Influx Assay (Flux), NaV1.6; assay type: cell-based; details: Trex HEK293 cells, ANG2 dye, inactivated state;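 also: Tetracycline-induced cells, compounds applied for one hour at room temperature with modulators holding channels open, IC50 from percent inhibition of sodium influx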
T1 sequence (Q9UQD0 whole entry): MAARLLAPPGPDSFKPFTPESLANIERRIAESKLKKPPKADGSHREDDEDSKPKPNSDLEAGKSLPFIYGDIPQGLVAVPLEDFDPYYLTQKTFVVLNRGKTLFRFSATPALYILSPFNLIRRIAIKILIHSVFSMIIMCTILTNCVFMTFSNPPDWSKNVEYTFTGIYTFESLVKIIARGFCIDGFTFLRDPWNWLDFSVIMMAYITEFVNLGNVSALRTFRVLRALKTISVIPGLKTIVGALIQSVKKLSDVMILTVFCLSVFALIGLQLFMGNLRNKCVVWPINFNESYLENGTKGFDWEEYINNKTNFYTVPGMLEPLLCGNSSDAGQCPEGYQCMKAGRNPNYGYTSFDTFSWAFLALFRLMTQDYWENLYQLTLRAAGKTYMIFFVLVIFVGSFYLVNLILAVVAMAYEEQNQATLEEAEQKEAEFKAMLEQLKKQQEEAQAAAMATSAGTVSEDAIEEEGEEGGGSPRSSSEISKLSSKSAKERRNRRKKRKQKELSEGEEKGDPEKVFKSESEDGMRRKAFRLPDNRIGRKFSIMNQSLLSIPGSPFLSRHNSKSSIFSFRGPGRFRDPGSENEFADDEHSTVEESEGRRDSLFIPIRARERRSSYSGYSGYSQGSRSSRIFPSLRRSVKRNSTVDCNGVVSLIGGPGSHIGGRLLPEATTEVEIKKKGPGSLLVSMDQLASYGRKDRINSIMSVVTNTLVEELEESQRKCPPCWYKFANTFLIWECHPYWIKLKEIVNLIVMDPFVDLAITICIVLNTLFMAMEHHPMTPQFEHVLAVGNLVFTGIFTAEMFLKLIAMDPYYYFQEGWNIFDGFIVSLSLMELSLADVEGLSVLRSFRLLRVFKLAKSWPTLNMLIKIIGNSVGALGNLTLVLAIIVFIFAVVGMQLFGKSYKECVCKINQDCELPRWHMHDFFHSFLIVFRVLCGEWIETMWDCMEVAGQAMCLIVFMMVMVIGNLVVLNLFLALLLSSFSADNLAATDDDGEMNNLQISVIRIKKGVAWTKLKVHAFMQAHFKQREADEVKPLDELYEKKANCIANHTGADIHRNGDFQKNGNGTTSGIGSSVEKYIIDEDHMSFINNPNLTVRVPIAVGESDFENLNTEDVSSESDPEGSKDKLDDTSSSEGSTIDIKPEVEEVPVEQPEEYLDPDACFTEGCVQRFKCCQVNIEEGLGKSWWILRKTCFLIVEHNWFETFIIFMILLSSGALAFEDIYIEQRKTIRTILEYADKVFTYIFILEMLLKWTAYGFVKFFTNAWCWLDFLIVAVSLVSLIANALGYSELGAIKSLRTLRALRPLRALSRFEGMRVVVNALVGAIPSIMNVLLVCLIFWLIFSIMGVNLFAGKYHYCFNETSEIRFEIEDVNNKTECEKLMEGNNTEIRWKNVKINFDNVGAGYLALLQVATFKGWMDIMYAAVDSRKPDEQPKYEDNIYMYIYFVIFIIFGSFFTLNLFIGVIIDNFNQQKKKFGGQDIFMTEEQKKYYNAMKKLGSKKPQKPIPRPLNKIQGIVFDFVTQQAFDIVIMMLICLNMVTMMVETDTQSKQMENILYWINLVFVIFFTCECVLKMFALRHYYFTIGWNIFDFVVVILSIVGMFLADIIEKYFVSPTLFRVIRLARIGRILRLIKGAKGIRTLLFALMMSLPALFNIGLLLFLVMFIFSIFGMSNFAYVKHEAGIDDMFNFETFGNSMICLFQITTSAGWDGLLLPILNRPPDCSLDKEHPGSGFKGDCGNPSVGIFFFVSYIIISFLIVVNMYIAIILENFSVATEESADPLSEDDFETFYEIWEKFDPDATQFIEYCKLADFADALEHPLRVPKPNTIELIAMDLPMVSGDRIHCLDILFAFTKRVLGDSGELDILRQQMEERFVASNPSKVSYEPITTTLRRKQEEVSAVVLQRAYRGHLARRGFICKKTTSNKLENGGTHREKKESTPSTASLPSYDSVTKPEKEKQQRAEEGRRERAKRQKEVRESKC

NaV1.5 [2] = biological target: T2, NaV1.5 (Homo sapiens (Human), UniProt Q14524); assay: Sodium Influx Assay (Flux), NaV1.5
T2 sequence (Q14524 other isoform, or with tags, fused parts or gaps): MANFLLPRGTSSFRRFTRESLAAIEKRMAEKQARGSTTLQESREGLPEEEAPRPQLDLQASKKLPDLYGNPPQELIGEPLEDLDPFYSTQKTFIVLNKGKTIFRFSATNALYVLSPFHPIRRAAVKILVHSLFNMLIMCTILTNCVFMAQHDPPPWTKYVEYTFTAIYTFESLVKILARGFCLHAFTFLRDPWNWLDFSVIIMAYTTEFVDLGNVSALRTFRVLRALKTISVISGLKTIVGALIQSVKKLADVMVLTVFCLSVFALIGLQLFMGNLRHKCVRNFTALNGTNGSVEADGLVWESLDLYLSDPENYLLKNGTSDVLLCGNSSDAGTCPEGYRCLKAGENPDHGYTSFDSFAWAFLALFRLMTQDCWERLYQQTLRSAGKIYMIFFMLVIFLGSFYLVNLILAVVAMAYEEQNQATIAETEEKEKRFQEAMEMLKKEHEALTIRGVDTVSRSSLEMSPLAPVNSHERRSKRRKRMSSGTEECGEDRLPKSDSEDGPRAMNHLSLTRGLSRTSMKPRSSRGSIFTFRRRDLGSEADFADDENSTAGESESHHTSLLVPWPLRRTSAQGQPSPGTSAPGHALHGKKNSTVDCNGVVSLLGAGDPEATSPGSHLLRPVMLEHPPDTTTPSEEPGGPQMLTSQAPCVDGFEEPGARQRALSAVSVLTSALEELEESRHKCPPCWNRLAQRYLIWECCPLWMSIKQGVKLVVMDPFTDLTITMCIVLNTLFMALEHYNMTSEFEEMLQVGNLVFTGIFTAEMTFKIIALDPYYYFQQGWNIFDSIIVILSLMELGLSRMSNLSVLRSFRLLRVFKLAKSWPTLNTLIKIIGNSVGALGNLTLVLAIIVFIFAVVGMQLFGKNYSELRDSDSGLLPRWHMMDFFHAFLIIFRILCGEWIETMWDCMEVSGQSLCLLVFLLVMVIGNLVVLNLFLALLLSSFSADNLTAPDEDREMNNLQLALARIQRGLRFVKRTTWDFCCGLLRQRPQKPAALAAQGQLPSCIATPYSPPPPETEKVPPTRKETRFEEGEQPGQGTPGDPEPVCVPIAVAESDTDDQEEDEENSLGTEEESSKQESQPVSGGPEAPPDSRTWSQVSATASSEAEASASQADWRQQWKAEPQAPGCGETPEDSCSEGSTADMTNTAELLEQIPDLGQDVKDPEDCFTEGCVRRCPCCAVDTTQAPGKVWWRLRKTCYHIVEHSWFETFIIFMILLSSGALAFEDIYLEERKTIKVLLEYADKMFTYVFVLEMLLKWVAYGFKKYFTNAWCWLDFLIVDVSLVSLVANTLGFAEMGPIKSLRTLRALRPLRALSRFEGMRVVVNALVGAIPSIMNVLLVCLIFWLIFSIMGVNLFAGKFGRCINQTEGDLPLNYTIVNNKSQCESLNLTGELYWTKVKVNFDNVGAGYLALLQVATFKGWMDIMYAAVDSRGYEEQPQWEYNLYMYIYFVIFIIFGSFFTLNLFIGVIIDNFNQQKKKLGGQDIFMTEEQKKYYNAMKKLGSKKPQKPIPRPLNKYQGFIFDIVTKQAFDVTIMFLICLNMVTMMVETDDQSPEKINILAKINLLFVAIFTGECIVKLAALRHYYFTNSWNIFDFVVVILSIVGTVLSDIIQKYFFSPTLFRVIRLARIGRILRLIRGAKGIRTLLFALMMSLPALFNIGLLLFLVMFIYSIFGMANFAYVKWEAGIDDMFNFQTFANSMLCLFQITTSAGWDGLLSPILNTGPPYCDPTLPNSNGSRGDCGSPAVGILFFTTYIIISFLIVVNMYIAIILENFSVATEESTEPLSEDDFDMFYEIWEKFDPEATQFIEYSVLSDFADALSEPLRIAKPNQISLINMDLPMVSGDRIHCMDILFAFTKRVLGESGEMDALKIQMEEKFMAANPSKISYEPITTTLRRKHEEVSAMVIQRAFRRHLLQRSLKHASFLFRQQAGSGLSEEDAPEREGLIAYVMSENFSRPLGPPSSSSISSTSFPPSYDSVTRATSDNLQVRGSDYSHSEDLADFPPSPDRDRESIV

NaV1.1 [3] = biological target: T3, NaV1.1 (Homo sapiens (Human), UniProt P35498); assay: Electrophysiological Assay (EP), patch voltage clamp, NaV1.1; assay type: cell-based; details: HEK-293 cells, whole-cell patch clamp;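 also: sodium current block measured at ambient temperature, holding at fully inactivating potential, 20 ms repolarization to −150 mV before test pulse, versus 0.5% DMSO control currents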
NaV1.5 [4] = biological target: T2, NaV1.5; assay: Electrophysiological Assay (EP), patch voltage clamp, NaV1.5; assay type: cell-based; details: HEK-293 cells, whole-cell patch clamp
NaV1.6 [5] = biological target: T1, NaV1.6; assay: Electrophysiological Assay (EP), patch voltage clamp, NaV1.6; assay type: cell-based; details: HEK-293 cells, whole-cell patch clamp;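 also: sodium current recorded at ambient temperature, channels held inactivated then briefly repolarized to −150 mV for 20 ms before a test pulse, control currents in 0.5% DMSO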
NaV1.1 [6] = biological target: T3, NaV1.1; assay: Sodium Influx Assay (Flux), NaV1.1; assay type: cell-based; details: Trex HEK293 cells, ANG2 dye, inactivated state;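 also: channels co-expressed with human β1 subunit and held open by modulators, cells exposed to compounds for one hour at room temperature, IC50 from percent inhibition of influx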
[7] = read-out: Flux NaV1.5 IC50, Trex HEK293 cells, ANG2 dye, inactivated state

Row | IC50 (NaV1.6 [1]) [nM] | IC50 (NaV1.1 [3]) [nM] | IC50 (NaV1.6 [5]) [nM] | IC50 (NaV1.1 [6]) [µM] | Structure (SMILES) | IC50 (NaV1.5 [2]; [7]) [µM] | IC50 (NaV1.5 [4]) [µM] | IC50 (NaV1.5 [2]) [µM]
1 | 108 | 539 | 13 | 1.18 | C[C@H](Nc1cc(F)c(S(=O)(=O)Nc2nccs2)cc1Cl)c1ccccc1F [Example 45, (S)-5-chloro-2-fluoro-4-((1-(2-fluorophenyl)ethyl)amino)-N-(thiazol-2-yl)benzenesulfonamide] | 6.26 | 5.15 | 
2 | 571 | 9700 | 55 | 13.4 | C[C@H](Nc1ccc(S(=O)(=O)Nc2cscn2)c(F)c1Cl)c1cc(Cl)ccc1F [Example 190, (S)-3-chloro-4-((1-(5-chloro-2-fluorophenyl)ethyl)amino)-2-fluoro-N-(thiazol-4-yl)benzenesulfonamide] | 25.8 | 30 | 
3 | 163 | 10000 | 31 | 20.7 | O=S(=O)(Nc1cscn1)c1c(F)cc(NCc2ccccc2CN2CCC2)cc1F [Example 272, 4-((2-(azetidin-1-ylmethyl)benzyl)amino)-2,6-difluoro-N-(thiazol-4-yl)benzenesulfonamide formate] | 30 | 30 | 
4 | 21 | 283 | 4 | 1.13 | O=S(=O)(Nc1nccs1)c1cc(Cl)c(NCc2cccc3ccncc23)cc1F [Example 61, 5-chloro-2-fluoro-4-((isoquinolin-8-ylmethyl)amino)-N-(thiazol-2-yl)benzenesulfonamide] | 8.91 | 10 | 
5 | 477 | 9890 | 37 | 5.78 | C[C@H](Oc1cc(F)c(S(=O)(=O)Nc2nccs2)cc1Cl)c1ccccc1F [Example 116, (S)-5-chloro-2-fluoro-4-(1-(2-fluorophenyl)ethoxy)-N-(thiazol-2-yl)benzenesulfonamide] | 4.58 | 14.3 | 
6 | 255 | 10000 | 34 | 30 | O=S(=O)(Nc1nccs1)c1cc(Cl)c(OCc2cccc3ccncc23)cc1F [Example 11, 5-chloro-2-fluoro-4-(isoquinolin-8-ylmethoxy)-N-(thiazol-2-yl)benzenesulfonamide] | 30 |  | 
7 | 35 | 332 | 10 | 0.388 | C[C@H](Nc1cc(F)c(S(=O)(=O)Nc2nccs2)cc1Cl)c1cc(F)ccc1F [Example 268, (S)-5-chloro-4-((1-(2,5-difluorophenyl)ethyl)amino)-2-fluoro-N-(thiazol-2-yl)benzenesulfonamide] | 3.68 |  | 
8 | 70 | 31 | 10 | 0.364 | O=S(=O)(Nc1nccs1)c1cc(Cl)c(NC(CC(F)(F)F)c2ccccc2)cc1F (centres unmarked) [Example 41, 5-chloro-2-fluoro-N-(thiazol-2-yl)-4-((3,3,3-trifluoro-1-phenylpropyl)amino)benzenesulfonamide] | 11.8 |  | 
9 | 29 | 2190 | 4 | 5.41 | O=S(=O)(Nc1nccs1)c1cc(Cl)c(NCc2ccccc2CN2CCC2)cc1F [Example 16, 4-((2-(azetidin-1-ylmethyl)benzyl)amino)-5-chloro-2-fluoro-N-(thiazol-2-yl)benzenesulfonamide 2,2,2-trifluoroacetate] | 23.5 |  | 
10 | 265 | 1020 | 25 | 3.24 | CC[C@H](Nc1cc(F)c(S(=O)(=O)Nc2nccs2)cc1Cl)c1ccccc1C [Example 54, (S)-5-chloro-2-fluoro-N-(thiazol-2-yl)-4-((1-(o-tolyl)propyl)amino)benzenesulfonamide] | 13.5 |  | 
11 | 174 | 4850 | 25 | 5.33 | Cc1cc(S(=O)(=O)Nc2ccncn2)c(F)cc1N[C@@H](C)c1cc(Cl)ccc1F [Example 275, (S)-4-((1-(5-chloro-2-fluorophenyl)ethyl)amino)-2-fluoro-5-methyl-N-(pyrimidin-4-yl)benzenesulfonamide] | 30 |  | 
12 | 479 | 277 | 31 | 3.33 | CCC(Nc1cc(F)c(S(=O)(=O)Nc2nccs2)cc1Cl)c1ccccc1 (centres unmarked) [Example 141, 5-chloro-2-fluoro-4-(1-phenylpropylamino)-N-(thiazol-2-yl)benzenesulfonamide] |  |  | 21
13 | 191 | 4100 | 28 | 2.14 | O=S(=O)(Nc1nccs1)c1cc(Cl)c(NC2(c3ccccc3)CC2)cc1F [Example 43, 5-chloro-2-fluoro-4-((1-phenylcyclopropyl)amino)-N-(thiazol-2-yl)benzenesulfonamide] | 11.1 |  | 
14 | 380 | 5590 | 43 | 3.77 | CC[C@H](Nc1cc(F)c(S(=O)(=O)Nc2ccncn2)cc1Cl)c1ccccc1Cl [Example 277, (S)-5-chloro-4-((1-(2-chlorophenyl)propyl)amino)-2-fluoro-N-(pyrimidin-4-yl)benzenesulfonamide 2,2,2-trifluoroacetate] | 9.39 | 10 | 
15 | 785 | 10000 | 152 | 4.83 | C[C@H](Nc1cc(F)c(S(=O)(=O)Nc2cscn2)cc1Cl)c1cc(Cl)ccc1F [Example 5, (S)-5-chloro-4-((1-(5-chloro-2-fluorophenyl)ethyl)amino)-2-fluoro-N-(thiazol-4-yl)benzenesulfonamide] | 5.31 | 10 | 
16 | 137 | 420 | 10 | 1.63 | C[C@H](Nc1cc(F)c(S(=O)(=O)Nc2nccs2)cc1Cl)c1cc(Cl)ccc1F [Example 8, (S)-5-chloro-4-((1-(5-chloro-2-fluorophenyl)ethyl)amino)-2-fluoro-N-(thiazol-2-yl)benzenesulfonamide] | 5.37 |  | 
17 | 123 | 182 | 24 | 0.637 | CC[C@H](Nc1cc(F)c(S(=O)(=O)Nc2nccs2)cc1Cl)c1ccccc1 [Example 40, (S)-5-chloro-2-fluoro-4-((1-phenylpropyl)amino)-N-(thiazol-2-yl)benzenesulfonamide] | 7.9 |  | 
18 | 1300 | 9000 | 259 | 4.29 | C[C@H](Nc1cc(F)c(S(=O)(=O)Nc2cccc(F)n2)cc1Cl)c1ccccc1F [Example 22, (S)-5-chloro-2-fluoro-4-((1-(2-fluorophenyl)ethyl)amino)-N-(6-fluoropyridin-2-yl)benzenesulfonamide] | 4.86 |  | 
19 | 69 | 112 | 12 | 0.476 | C[C@H](Nc1cc(F)c(S(=O)(=O)Nc2nccs2)c(F)c1)c1ccccc1F [Example 27, (S)-2,6-difluoro-4-((1-(2-fluorophenyl)ethyl)amino)-N-(thiazol-2-yl)benzenesulfonamide] | 8.49 |  | 
20 | 232 | 260 | 19 | 0.888 | C[C@H](Nc1cc(F)c(S(=O)(=O)Nc2nccs2)cc1Cl)c1cccc(F)c1 [Example 49, (S)-5-chloro-2-fluoro-4-((1-(3-fluorophenyl)ethyl)amino)-N-(thiazol-2-yl)benzenesulfonamide] | 4.75 |  | 
21 | 528 | 159 | 27 | 2.49 | CC(C)CC(Nc1cc(F)c(S(=O)(=O)Nc2nccs2)cc1Cl)c1ccccc1 (centres unmarked) [Example 143, 5-chloro-2-fluoro-4-(3-methyl-1-phenylbutylamino)-N-(thiazol-2-yl)benzenesulfonamide] |  |  | 7.01
22 | 426 | 10000 | 119 | 10.6 | O=S(=O)(Nc1nccs1)c1cc(Cl)c(N[C@H](CN2CCC2)c2ccccc2)cc1F [Example 67, (S)-4-((2-(azetidin-1-yl)-1-phenylethyl)amino)-5-chloro-2-fluoro-N-(thiazol-2-yl)benzenesulfonamide 2,2,2-trifluoroacetate] | 30 |  | 
23 | 385 | 10000 | 85 | 4.79 | O=S(=O)(Nc1cscn1)c1cc(Cl)c(N[C@H](c2cc(F)ccc2F)C(F)F)cc1F [Example 335, (R)-5-chloro-4-((1-(2,5-difluorophenyl)-2,2-difluoroethyl)amino)-2-fluoro-N-(thiazol-4-yl)benzenesulfonamide] | 21.2 |  | 
24 | 656 | 8620 | 138 | 10.3 | O=S(=O)(Nc1nccs1)c1cc(Cl)c(NC2(c3ccccc3F)CCC2)cc1F [Example 107, 5-chloro-2-fluoro-4-((1-(2-fluorophenyl)cyclobutyl)amino)-N-(thiazol-2-yl)benzenesulfonamide] | 7.4 |  | 

Row | Structure (SMILES) | IC50 (NaV1.6 [1]) [nM] | IC50 (NaV1.1 [3]) [nM] | IC50 (NaV1.6 [5]) [nM] | IC50 (NaV1.1 [6]) [µM] | IC50 (NaV1.5 [2]; [7]) [µM] | IC50 (NaV1.5 [4]) [µM] | IC50 (NaV1.5 [2]) [µM]
25 | CCC(Nc1ccc(S(=O)(=O)Nc2ncns2)cc1Cl)c1ccccc1 (centres unmarked) [Example 139, 3-chloro-4-(1-phenylpropylamino)-N-(1,2,4-thiadiazol-5-yl)benzenesulfonamide] | 107 |  | 38 | 1.29 |  | ≥ 30 | 12.9
26 | CC[C@H](Nc1cc(F)c(S(=O)(=O)Nc2nccs2)cc1Cl)c1ccccc1F [Example 47, (S)-5-chloro-2-fluoro-4-((1-(2-fluorophenyl)propyl)amino)-N-(thiazol-2-yl)benzenesulfonamide] | 89 | 114 | 10 | 0.816 | 6.52 |  | 
